Laboratory results reported in ChEMBL document CHEMBL5154901, “Development of Predictive Classification Models for Whole Cell Antimycobacterial Activity of Benzothiazinones” (J Med Chem, 2022).
≈ marks a conversion by molar mass, not a printed value.

Experiments:
[1] = tested on: Mycolicibacterium vaccae; test: Antimycobacterial activity against Mycobacterium vaccae (JMRC:STI:10670) assessed as reduction in bacterial growth incubated for 42 hrs by serial dilution method; format: functional
[2] = Cytotoxicity against human HeLa cells assessed as reduction in cell viability incubated for 72 hrs by methylene blue staining based colorimetric assay; format: toxicity
[3] = Mycolicibacterium vaccae, JMRC:STI:10670, read-out: MIC

Row | Structure (SMILES) | MIC [1, 3] [µM] | MIC [1] | CC50 at 72 h [2] [µM]
1 | CN1CCC(CCC2CCN(c3nc(=O)c4cc(C(F)(F)F)cc([N+](=O)[O-])c4s3)CC2)CC1 | 0.206 (≈ 0.0998 µg/mL) |  | 
2 | O=c1nc(N2CCc3[nH]nc(-c4ccccc4)c3C2)sc2c([N+](=O)[O-])cc(C(F)(F)F)cc12 |  | 6.6 10^3nM | 
3 | O=c1nc(Nc2ccc3[nH]ncc3c2)sc2c([N+](=O)[O-])cc(C(F)(F)F)cc12 | 61.4 (≈ 25 µg/mL) |  | 
4 | CN1CCN(C(=O)CCC(=O)N2CCN(c3nc(=O)c4cc(C(F)(F)F)cc([N+](=O)[O-])c4s3)CC2)CC1 |  | 5.8 10^3nM | 
5 | CCCCN(Cc1ccccc1)c1nc(=O)c2cc(C(F)(F)F)cc([N+](=O)[O-])c2s1 | 0.0286 (≈ 0.0125 µg/mL) |  | > 114
6 | COc1cc(OC)cc(N2CCN(c3nc(=O)c4cc(C(F)(F)F)cc([N+](=O)[O-])c4s3)CC2)c1 | 0.0624 (≈ 0.031 µg/mL) |  | > 101
7 | CC(C)n1c(-c2ccccc2)nc2c1CN(c1nc(=O)c3cc(C(F)(F)F)cc([N+](=O)[O-])c3s1)C2 | 0.798 (≈ 0.4 µg/mL) |  | 
8 | O=C(CN1CCN(c2nc(=O)c3cc(C(F)(F)F)cc([N+](=O)[O-])c3s2)CC1)NCCc1ccccc1 | 0.479 (≈ 0.25 µg/mL) |  | 87.8
9 | CN(CCCO)c1nc(=O)c2cc(C(F)(F)F)cc([N+](=O)[O-])c2s1 | 0.0716 (≈ 0.026 µg/mL) |  | 103
10 | O=c1nc(N2CCC(Oc3ccc(OC(F)(F)F)cc3)CC2)sc2c([N+](=O)[O-])cc(C(F)(F)F)cc12 | 0.0579 (≈ 0.031 µg/mL) |  | > 93
11 | CN(c1ccc(CCO)cc1)c1nc(=O)c2cc(C(F)(F)F)cc([N+](=O)[O-])c2s1 | 7.33 (≈ 3.12 µg/mL) |  | 
12 | O=c1nc(N2CCN(CC(F)(F)c3ccc(OC(F)(F)F)cc3)CC2)sc2c([N+](=O)[O-])cc(C(F)(F)F)cc12 | 0.0027 (≈ 0.00158 µg/mL) |  | > 86
13 | CN(CC(F)(F)CO)c1nc(=O)c2cc(C(F)(F)F)cc([N+](=O)[O-])c2s1 | 0.0626 (≈ 0.025 µg/mL) |  | 109
14 | CN(c1ccc(CN)cc1)c1nc(=O)c2cc(C(F)(F)F)cc([N+](=O)[O-])c2s1 | 3.8 (≈ 1.56 µg/mL) |  | 
15 | O=c1nc(Nc2ccc(CO)cc2)sc2c([N+](=O)[O-])cc(C(F)(F)F)cc12 |  | 16 10^3nM | 
16 | O=c1nc(N2CCN(S(=O)(=O)c3ccc(OC(F)(F)F)cc3)CC2)sc2c([N+](=O)[O-])cc(C(F)(F)F)cc12 | 0.0274 (≈ 0.016 µg/mL) |  | 31.5
17 | CN1CCN(C(=O)C(F)(F)C(F)(F)C(=O)N2CCN(c3nc(=O)c4cc(C(F)(F)F)cc([N+](=O)[O-])c4s3)CC2)CC1 | 0.0407 (≈ 0.025 µg/mL) |  | > 81.4
18 | O=c1nc(N2CCN(CCCC3(c4ccc(F)cc4)OCCO3)CC2)sc2c([N+](=O)[O-])cc(C(F)(F)F)cc12 | 0.141 (≈ 0.0802 µg/mL) |  | 
19 | O=c1nc(N2CC[C@@H](c3ccc(F)cc3)[C@H](CO)C2)sc2c([N+](=O)[O-])cc(C(F)(F)F)cc12 | 0.0128 (≈ 0.00619 µg/mL) |  | 35.8

Row | Structure (SMILES) | MIC [1, 3] [µM] | MIC [1] | CC50 at 72 h [2] [µM]
20 | CN(c1ccc2[nH]ncc2c1)c1nc(=O)c2cc(C(F)(F)F)cc([N+](=O)[O-])c2s1 | 0.949 (≈ 0.4 µg/mL) |  | 
21 | CC(C)n1c2c([n+](C)c1-c1ccccc1)CN(c1nc(=O)c3cc(C(F)(F)F)cc([N+](=O)[O-])c3s1)C2 | 0.0477 |  | 
22 | O=c1nc(Nc2ccccc2)sc2c([N+](=O)[O-])cc(C(F)(F)F)cc12 | 68.1 (≈ 25 µg/mL) |  | 
23 | O=C(c1ccc2[nH]ncc2c1)N1CCN(c2nc(=O)c3cc(C(F)(F)F)cc([N+](=O)[O-])c3s2)CC1 | 6.19 (≈ 3.12 µg/mL) |  | 
24 | O=C(c1ccc2cn[nH]c2c1)N1CCN(c2nc(=O)c3cc(C(F)(F)F)cc([N+](=O)[O-])c3s2)CC1 | 3.09 (≈ 1.56 µg/mL) |  | 
25 | CN(c1ccc(O)cc1)c1nc(=O)c2cc(C(F)(F)F)cc([N+](=O)[O-])c2s1 | 126 (≈ 50.1 µg/mL) |  | 
26 | O=C(CN1CCN(c2nc(=O)c3cc(C(F)(F)F)cc([N+](=O)[O-])c3s2)CC1)N1CCOCC1 | 0.205 (≈ 0.0999 µg/mL) |  | 
27 | O=c1nc(N2CCn3cc(-c4ccc(OC(F)(F)F)cc4)nc3C2)sc2c([N+](=O)[O-])cc(C(F)(F)F)cc12 | 1.4 (≈ 0.78 µg/mL) |  | 
28 | O=c1nc(Nc2ccc(CCO)cc2)sc2c([N+](=O)[O-])cc(C(F)(F)F)cc12 | 15.2 (≈ 6.25 µg/mL) |  | 
29 | O=c1nc(N2Cc3[nH]nc(-c4ccccc4)c3C2)sc2c([N+](=O)[O-])cc(C(F)(F)F)cc12 | 13.6 (≈ 6.25 µg/mL) |  | 
30 | CN1CCN(C(=O)CC(C)(C)CC(=O)N2CCN(c3nc(=O)c4cc(C(F)(F)F)cc([N+](=O)[O-])c4s3)CC2)CC1 | 5.34 (≈ 3.12 µg/mL) |  | 
31 | CN1CCN(C(=O)CCCC(=O)N2CCN(c3nc(=O)c4cc(C(F)(F)F)cc([N+](=O)[O-])c4s3)CC2)CC1 | 11.2 (≈ 6.23 µg/mL) |  | 
32 | CN1CCC(OC2CCN(c3nc(=O)c4cc(C(F)(F)F)cc([N+](=O)[O-])c4s3)CC2)CC1 |  | 6.6 10^3nM | 
33 | O=c1nc(N2CCc3[nH]c(-c4ccccc4)nc3C2)sc2c([N+](=O)[O-])cc(C(F)(F)F)cc12 | 52.8 (≈ 25 µg/mL) |  | 
34 | O=C(O)[C@@H]1CN(c2nc(=O)c3cc(C(F)(F)F)cc([N+](=O)[O-])c3s2)Cc2ccccc21 |  | 3.5 10^3nM | 
35 | Cn1c(-c2ccccc2)nc2c1CN(c1nc(=O)c3cc(C(F)(F)F)cc([N+](=O)[O-])c3s1)C2 |  | 13 10^3nM | 
36 | CCn1c(-c2ccccc2)nc2c1CN(c1nc(=O)c3cc(C(F)(F)F)cc([N+](=O)[O-])c3s1)C2 | 3.2 (≈ 1.56 µg/mL) |  | 
37 | CN(c1ccc(CO)cc1)c1nc(=O)c2cc(C(F)(F)F)cc([N+](=O)[O-])c2s1 | 30.4 (≈ 12.5 µg/mL) |  | 

More lines, main results first:

Row | MIC [1, 3] [µM] | MIC [1] | Structure (SMILES) | CC50 at 72 h [2] [µM]
38 | 0.41 (≈ 0.2 µg/mL) |  | Cn1c(-c2ccccc2)nc2c1CCN(c1nc(=O)c3cc(C(F)(F)F)cc([N+](=O)[O-])c3s1)C2 | 
39 | 0.0131 (≈ 0.0062 µg/mL) |  | O=c1nc(N2CCn3c(-c4ccccc4)cnc3C2)sc2c([N+](=O)[O-])cc(C(F)(F)F)cc12 | 
40 | 17.3 (≈ 6.23 µg/mL) |  | O=c1nc(N2CCNCC2)sc2c([N+](=O)[O-])cc(C(F)(F)F)cc12 | 
41 | 0.992 (≈ 0.4 µg/mL) |  | O=c1nc(N2CCC(CCO)CC2)sc2c([N+](=O)[O-])cc(C(F)(F)F)cc12 | 91.5
42 | 6.49 (≈ 3.12 µg/mL) |  | O=C(O)c1ccccc1N1CCN(c2nc(=O)c3cc(C(F)(F)F)cc([N+](=O)[O-])c3s2)CC1 | 
43 | 0.0506 (≈ 0.025 µg/mL) |  | O=C(CN1CCN(c2nc(=O)c3cc(C(F)(F)F)cc([N+](=O)[O-])c3s2)CC1)Nc1ccccn1 | 44.5
44 | 2 (≈ 0.779 µg/mL) |  | O=c1nc(N2CCC(CO)CC2)sc2c([N+](=O)[O-])cc(C(F)(F)F)cc12 | 
45 | 0.0527 (≈ 0.025 µg/mL) |  | O=c1nc(N2CCn3c(nnc3-c3ccccc3)C2)sc2c([N+](=O)[O-])cc(C(F)(F)F)cc12 | 
46 |  | 53 10^3nM | O=c1nc(N2CCn3cc(-c4ccccc4)nc3C2)sc2c([N+](=O)[O-])cc(C(F)(F)F)cc12 | 
47 | 0.0491 (≈ 0.025 µg/mL) |  | O=c1nc(N2CCn3cc(-c4ccc(F)c(F)c4)nc3C2)sc2c([N+](=O)[O-])cc(C(F)(F)F)cc12 | 
48 | 3.78 (≈ 1.56 µg/mL) |  | Cc1nnc2n1CCN(c1nc(=O)c3cc(C(F)(F)F)cc([N+](=O)[O-])c3s1)C2 | 
49 |  | 26 10^3nM | O=c1nc(N2CCc3nc(-c4ccccc4)ncc3C2)sc2c([N+](=O)[O-])cc(C(F)(F)F)cc12 | 
50 | 1.72 (≈ 0.778 µg/mL) |  | O=c1nc(N2CCN(c3ccc(O)cc3)CC2)sc2c([N+](=O)[O-])cc(C(F)(F)F)cc12 | 
51 | 0.196 (≈ 0.0998 µg/mL) |  | O=c1nc(N2CCn3cc(-c4ccc(F)cc4F)nc3C2)sc2c([N+](=O)[O-])cc(C(F)(F)F)cc12 | 
52 | 1.64 (≈ 0.778 µg/mL) |  | O=c1nc(N2CCn3nnc(-c4ccccc4)c3C2)sc2c([N+](=O)[O-])cc(C(F)(F)F)cc12 | 
53 | 105 (≈ 49.8 µg/mL) |  | O=c1nc(N2CCn3nc(-c4ccccc4)nc3C2)sc2c([N+](=O)[O-])cc(C(F)(F)F)cc12 | 
54 | 0.267 (≈ 0.0999 µg/mL) |  | CN1CCN(c2nc(=O)c3cc(C(F)(F)F)cc([N+](=O)[O-])c3s2)CC1 | 
55 |  | 1.1 10^3nM | O=c1nc(N2CCC(O)CC2)sc2c([N+](=O)[O-])cc(C(F)(F)F)cc12 | 
56 | 1.55 (≈ 0.782 µg/mL) |  | O=C(c1cccc2[nH]ncc12)N1CCN(c2nc(=O)c3cc(C(F)(F)F)cc([N+](=O)[O-])c3s2)CC1 | 
57 | 31.4 (≈ 12.5 µg/mL) |  | O=c1nc(N2CCn3nncc3C2)sc2c([N+](=O)[O-])cc(C(F)(F)F)cc12 | 
